Drawing on patent publication US11136317B2, “NADPH oxidase 4 inhibitors” (ACTELION PHARMACEUTICALS LTD, priority 2015, dated 2021), this text covers IC50 for 25 compounds.

Usually IC50 stands for the point on the concentration scale where inhibition reaches its midpoint.

Each structure is given as a SMILES string.

This test has as its target T1, human NOX4 (Homo sapiens, UniProt Q9NPH5).
T1 construct: The full-length human NOX4 (NM_016931.3) transcript was cloned; expressed in transfected cells
T1 sequence (Q9NPH5 1-578): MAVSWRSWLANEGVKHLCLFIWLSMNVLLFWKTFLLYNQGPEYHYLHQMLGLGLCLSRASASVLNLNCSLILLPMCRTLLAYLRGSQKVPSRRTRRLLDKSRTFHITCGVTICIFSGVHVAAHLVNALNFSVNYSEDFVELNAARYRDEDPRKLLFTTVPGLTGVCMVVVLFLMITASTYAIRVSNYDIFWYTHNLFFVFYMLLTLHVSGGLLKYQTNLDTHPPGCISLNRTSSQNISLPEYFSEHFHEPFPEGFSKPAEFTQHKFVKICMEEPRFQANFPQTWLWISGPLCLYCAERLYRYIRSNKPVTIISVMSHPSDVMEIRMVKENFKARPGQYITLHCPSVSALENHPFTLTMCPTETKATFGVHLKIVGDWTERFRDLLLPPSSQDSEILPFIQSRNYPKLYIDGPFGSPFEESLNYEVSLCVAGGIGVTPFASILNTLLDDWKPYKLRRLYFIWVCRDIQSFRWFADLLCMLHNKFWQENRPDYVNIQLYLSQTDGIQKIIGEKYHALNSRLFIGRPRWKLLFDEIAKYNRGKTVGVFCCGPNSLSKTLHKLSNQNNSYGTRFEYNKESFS
T1 sequence (P13498 1-195 partner): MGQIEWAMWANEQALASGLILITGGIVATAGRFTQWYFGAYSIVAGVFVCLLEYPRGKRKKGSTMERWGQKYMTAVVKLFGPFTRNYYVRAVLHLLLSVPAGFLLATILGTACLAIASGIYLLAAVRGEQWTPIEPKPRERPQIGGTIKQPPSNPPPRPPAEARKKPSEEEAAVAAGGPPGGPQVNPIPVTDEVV
The test can be described thus: Amplex Red activity assay (cellular H2O2 formation in hNOX4 T-REx-293 cells). The note with it: tet-induced 24 h, extracellular H2O2 by Amplex Red, 60 min 25° C., geometric mean if determined several times. The format is cell-based. On the procedure:
The nucleotide sequence and the amino acid sequence for the human NOX4 (Entrez Gene ID 50507) is known in the art and are published. The potency and efficacy of the compounds of Formula (I) are assessed for their potential to inhibit the formation of ROS in a cellular assay.
The full-length human NOX4 (NM_016931.3) transcript was cloned into the pDONR™221 vector (Life Technologies™) in order to generate, by site-specific integration according to the recommendation of the manufacturer (Life Technologies™), a recombinant pJTI™ R4 DEST CMV-TO vector containing the NOX4 coding information controlled by tetracycline (tet) responsive tet-on cytomegalovirus promoter (hNOX4 pDEST).
Modified human embryonic kidney cells overexpressing a tet receptor (Jump-In™ T-REx™ HEK293; Life Technologies™) were transfected with the NOX4-containing tet-on vector (hNOX4 pDEST) to generate a stable recombinant cell pool (hNOX4 T-REx-293). hNOX4 T-REx-293 cells were cultured in DMEM containing 4.5 g/L glucose supplemented with 10% fetal calf serum, penicillin (100 U/mL), streptomycin (100 μg/mL), geneticin (1 mg/mL), and blasticidin (5 μg/mL) at 37° C. in air with 5% CO2. Human Nox4 expression was induced with tet (1 μg/mL) for 24 h and extracellular H2O2 was quantified using the Amplex Red reagent (Life Technologies™).
Compounds were prepared as 10 mM stock solution in DMSO vehicle, then diluted in 384-well plates using DMSO followed by a transfer of the dilutions into the assay plate. As a control, diphenylene iodonium was included at a final concentration of 10 μM. Compounds were tested at 10 concentrations in the range from 50 μM highest to 100 nM lowest.
Cellular H2O2 formation was measured using the Amplex Red reagent. […] Cells were seeded into 384-well clear bottom plates at a density of 20 000 cells per well in presence or absence of compounds. […] All wells contained 1.25% of DMSO. The plates were kept at 25° C. for 60 min. The amount of produced resorufin was detected with the Synergy™ Mx microplate reader (BioTek) with excitation and emission wavelengths set to 550 nm and 600 nm, respectively. Fluorescence was measured for each well and the fluorescence at 600 nm wavelength was compared to the fluorescence of the vehicle in place of compound. Inhibitory activities of example compounds were determined by calculating the IC50 value (the concentration of compound needed to inhibit 50% of the enzyme activity). The calculated IC50 values may fluctuate depending on the daily cellular assay performance. Fluctuations of this kind are known to those skilled in the art.
For `O=C(Nc1ccc2oc(N3CCCC4(CCO4)C3)nc2c1)c1ccc2c(c1)CCO2` (stereo not shown) [Example 25, 2,3-Dihydro-benzofuran-5-carboxylic acid [2-(1-oxa-6-aza-spiro[3.5]non-6-yl)-benzooxazol-5-yl]-amide], the IC50 was 804 nM.
Under `O=C(Nc1ccc2oc(N3CCCCC34COC4)nc2c1)c1ccc2c(c1)CCO2` [Example 26, 2,3-Dihydro-benzofuran-5-carboxylic acid [2-(2-oxa-5-aza-spiro[3.5]non-5-yl)-benzooxazol-5-yl]-amide] stands 1490 nM.
Regarding `O=C(Nc1ccc2oc(N3CCC4(CCO4)CC3)nc2c1)c1ccc2c(c1)CCO2` [Example 27, 2,3-Dihydro-benzofuran-5-carboxylic acid [2-(1-oxa-7-aza-spiro[3.5]non-7-yl)-benzooxazol-5-yl]-amide], the IC50 is 729 nM.
Under `O=C(Nc1ccc2oc(N3CCC4(CCCO4)CC3)nc2c1)c1ccc2c(c1)CCO2` [Example 29, 2,3-Dihydro-benzofuran-5-carboxylic acid [2-(1-oxa-8-aza-spiro[4.5]dec-8-yl)-benzooxazol-5-yl]-amide] stands 541 nM; under `O=C(Nc1ccc2oc(N3CC4(CCOCC4)C3)nc2c1)c1ccc2c(c1)CCO2` [Example 30, 2,3-Dihydro-benzofuran-5-carboxylic acid [2-(7-oxa-2-aza-spiro[3.5]non-2-yl)-benzooxazol-5-yl]-amide], 1230 nM.
Regarding `O=C(Nc1ccc2oc(N3CC4(CCCO4)C3)nc2c1)c1ccc2c(c1)CCO2` [Example 31, 2,3-Dihydro-benzofuran-5-carboxylic acid [2-(5-oxa-2-aza-spiro[3.4]oct-2-yl)-benzooxazol-5-yl]-amide], the IC50 came out at 2170 nM.
In the case of `O=C(Nc1ccc2oc(N3CC(N4CCC(O)CC4)C3)nc2c1)c1ccc2c(c1)CCO2` [Example 32, 2,3-Dihydro-benzofuran-5-carboxylic acid {2-[3-(4-hydroxy-piperidin-1-yl)-azetidin-1-yl]-benzooxazol-5-yl}-amide], the IC50 was found to be 2410 nM.
For `CN1CCCC2(C1)CN(c1nc3cc(NC(=O)c4ccc5c(c4)CCO5)ccc3o1)C2` [Example 33, 2,3-Dihydro-benzofuran-5-carboxylic acid [2-(6-methyl-2,6-diaza-spiro[3.5]non-2-yl)-benzooxazol-5-yl]-amide] the value was 2140 nM; for `O=C(Nc1ccc2oc(N3CC4(CCCCO4)C3)nc2c1)c1ccc2c(c1)CCO2` [Example 34, 2,3-Dihydro-benzofuran-5-carboxylic acid [2-(5-oxa-2-aza-spiro[3.5]non-2-yl)-benzooxazol-5-yl]-amide], 1220 nM; for `O=C(Nc1ccc2oc(N3CCC34CCC4)nc2c1)c1ccc2c(c1)CCO2` [Example 35, 2,3-Dihydro-benzofuran-5-carboxylic acid [2-(1-aza-spiro[3.3]hept-1-yl)-benzooxazol-5-yl]-amide], 379 nM.
For `O=C(Nc1ccc2oc(N3CCC34CCOCC4)nc2c1)c1ccc2c(c1)CCO2` [Example 36, 2,3-Dihydro-benzofuran-5-carboxylic acid [2-(7-oxa-1-aza-spiro[3.5]non-1-yl)-benzooxazol-5-yl]-amide], the IC50 was 404 nM.
Turning to `CC(C)(C)OC(=O)C1CN(c2nc3cc(NC(=O)c4ccc5c(c4)CCO5)ccc3o2)C1` [Example 37, 1-{5-[(2,3-Dihydro-benzofuran-5-carbonyl)-amino]-benzooxazol-2-yl}-azetidine-3-carboxylic acid tert-butyl ester], the IC50 is 841 nM.
Under `O=C(Nc1ccc2oc(N3CCCC3=O)nc2c1)c1ccc2c(c1)CCO2` [Example 38, 2,3-Dihydro-benzofuran-5-carboxylic acid [2-(2-oxo-pyrrolidin-1-yl)-benzooxazol-5-yl]-amide] stands 1750 nM.
Take `O=C(Nc1ccc2oc(N3CCS(=O)(=O)CC3)nc2c1)c1ccc2c(c1)OCCO2` [Example 39, 2,3-Dihydro-benzo[1,4]dioxine-6-carboxylic acid [2-(1,1-dioxo-thiomorpholin-4-yl)-benzooxazol-5-yl]-amide]: the IC50 was 444 nM.
For `O=C(Nc1ccc2oc(N3CCS(=O)(=O)CC3)nc2c1)c1ccc2c(c1)CCCO2` [Example 40, Chroman-6-carboxylic acid [2-(1,1-dioxo-thiomorpholin-4-yl)-benzooxazol-5-yl]-amide] the value was 812 nM; for `CN1CCOc2ccc(C(=O)Nc3ccc4oc(N5CCS(=O)(=O)CC5)nc4c3)cc21` [Example 41, 4-Methyl-3,4-dihydro-2H-benzo[1,4]oxazine-6-carboxylic acid [2-(1,1-dioxo-thiomorpholin-4-yl)-benzooxazol-5-yl]-amide], 2520 nM.
Under `O=C(Nc1ccc2oc(N3CCC[C@@H](O)C3)nc2c1)c1ccc2c(c1)CCO2` [Example 42, (R)—N-(2-(3-hydroxypiperidin-1-yl)benzo[d]oxazol-5-yl)-2,3-dihydrobenzofuran-5-carboxamide] stands 566 nM.
For the compound `O=C(Nc1ccc2oc(N3CCC[C@H](O)C3)nc2c1)c1ccc2c(c1)CCO2` [Example 43, 2,3-Dihydro-benzofuran-5-carboxylic acid [2-((S)-3-hydroxy-piperidin-1-yl)-benzooxazol-5-yl]-amide], the IC50 was 541 nM.
Regarding `CC(C)OC1CN(c2nc3cc(NC(=O)c4ccc5c(c4)CCO5)ccc3o2)C1` [Example 44, 2,3-Dihydro-benzofuran-5-carboxylic acid [2-(3-isopropoxy-azetidin-1-yl)-benzooxazol-5-yl]-amide], the IC50 was 1140 nM.
As for `O=C(Nc1ccc2oc(N3CC[C@@H](O)C3)nc2c1)c1ccc2c(c1)CCO2` [Example 45, 2,3-Dihydro-benzofuran-5-carboxylic acid [2-((R)-3-hydroxy-pyrrolidin-1-yl)-benzooxazol-5-yl]-amide], the IC50 stood at 573 nM.
Regarding `O=C(Nc1ccc2oc(N3CC[C@H](O)C3)nc2c1)c1ccc2c(c1)CCO2` [Example 46, 2,3-Dihydro-benzofuran-5-carboxylic acid [2-((S)-3-hydroxy-pyirolidin-1-yl)-benzooxazol-5-yl]-amide], the IC50 was 570 nM.
For the compound `O=C(Nc1ccc2oc(N3CC(O)C3)nc2c1)c1ccc2c(c1)CCO2` [Example 47, 2,3-Dihydro-benzofuran-5-carboxylic acid [2-(3-hydroxy-azetidin-1-yl)-benzooxazol-5-yl]-amide], the IC50 is 657 nM.
With `O=C(Nc1ccc2oc(N3CCC(O)CC3)nc2c1)c1ccc2c(c1)CCO2` [Example 48, 2,3-Dihydro-benzofuran-5-carboxylic acid [2-(4-hydroxy-piperidin-1-yl)-benzooxazol-5-yl]-amide], the IC50 worked out at 448 nM.
In the case of `O=C(Nc1ccc2oc(N3CC(c4ccccc4)C3)nc2c1)c1ccc2c(c1)CCO2` [Example 49, 2,3-Dihydro-benzofuran-5-carboxylic acid [2-(3-phenyl-azetidin-1-yl)-benzooxazol-5-yl]-amide], the 50% inhibitory concentration (IC50) was 1230 nM.
In the case of `O=C(Nc1ccc2oc(N3CCC4(CC3)COC4)nc2c1)c1ccc2c(c1)CCO2` [Example 50, 2,3-Dihydro-benzofuran-5-carboxylic acid [2-(2-oxa-7-aza-spiro[3.5]non-7-yl)-benzooxazol-5-yl]-amide], the IC50 came out at 451 nM.
